Values belong to the compound of their own block, whether it stands above or below them.
Key:
[1] = Stability study of levorotatory enantiomer of compounds in solvent (MCT); assay type: physicochemical; settings: MCT solution; for Isomer (%): dextrorotatory form
Experimental: 2. Test method: the samples were prepared according to Table 2, wherein each sample was dispensed into 10 vials according to the lofting volume, and the samples were lofted according to Table 3.
4. The related substance was determined according to high performance liquid chromatography (General Chapter 0512, China Pharmacopoeia, 2015 Edition).
(1) Chromatographic conditions: the chromatography column was Agilent ZORBAX SB-C8, 4.6 mm×250 mm, 5 μm, and 0.1% phosphoric acid solution-acetonitrile (50:50) was used as a mobile phase; the detection wavelength was […]; the flow rate was 1.0 mL/min; the column temperature was 40° C., and linear gradient elution was performed according to the following table;
(§1) (2) Determination method: an appropriate amount of the product was weighed precisely, a diluent (absolute ethanol) was added and shaken to dissolve, and quantitatively diluted to give a solution containing 0.4 mg per 1 mL, the solution was […] by vortex for 30 s, and filtered with PTFE filter membrane (0.22 μm, JINTENG), and the filtrate was collected as a test sample solution. 10 μL of the solution was weighed precisely and injected into a liquid chromatograph, and a chromatogram was recorded; if an impurity peak existed in the chromatogram of the test sample solution, calculation was performed according to a peak area normalization method to give the target product.
5. Isomer determination was performed according to high performance liquid chromatography (General Chapter 0512, China Pharmacopoeia, 2015 Edition).
(1) Chromatographic conditions: cellulose-tris(3,5-dimethylphenylcarbamate)silica gel was used as filler (Chiralcel OD-H, 250×4.6 mm, 5 μm); n-hexane-isopropanol (90:10) was used as a mobile phase, and isocratic elution was performed for 25 min at a flow rate of 1.0 mL/min; the column temperature was 35° C.; the detection wavelength was 310 nm.
as §1, with “(n-hexane-isopropanol (90:10))” for “(absolute ethanol)”, “about 1.0” for “0.4”, “20” for “10”, “isomer” for “impurity”

[2] = High temperature stability study of compounds (60° C.); assay type: physicochemical; settings: in the dark; for Ketorolac (%): related substance
Experimental: Test protocol: the compounds prepared in the present disclosure were placed in a colorless and transparent vial, placed in the dark at a high temperature (60° C.), and were sampled for day 0, day 5 and day 10, respectively, and the purity of the compounds and the change of the related substance (ketorolac) were determined.

[3] = By-product toxicity test (metabolic byproducts in the human body); settings: for Metabolic by-products in human body: by the metabolic pathways of the compounds in the human body; for Toxicity: toxicity of the metabolic by-products in human body

Total main peak purity (%) ([2]; Day 0): 96.21% | Total main peak purity (%) ([2]; Day 5): 95.58% | Total main peak purity (%) ([2]; Day 10): 95.21% | Ketorolac (%) ([2]; Day 0): 0.29% | Ketorolac (%) ([2]; Day 5): 0.31% | Ketorolac (%) ([2]; Day 10): 0.30%
Structure (SMILES): CCC(=O)OC(OC(=O)C1CCn2c(C(=O)c3ccccc3)ccc21)C(C)C (stereo not shown) [N9]

Total main peak purity (%) ([2]; Day 0): 92.45% | Total main peak purity (%) ([2]; Day 5): 90.83% | Total main peak purity (%) ([2]; Day 10): 90.36% | Ketorolac (%) ([2]; Day 0): 0.11% | Ketorolac (%) ([2]; Day 5): 0.15% | Ketorolac (%) ([2]; Day 10): 0.17%
Structure (SMILES): CCC(OC(C)=O)OC(=O)C1CCn2c(C(=O)c3ccccc3)ccc21 (stereo not shown) [N3]
Metabolic by-products in human body [3]: Propionaldehyde and acetic acid | Toxicity [3]: relatively low

Further lines, the compound ahead of its results:

Structure (SMILES): CC(C)OC(=O)OC(C)OC(=O)[C@H]1CCn2c(C(=O)c3ccccc3)ccc21 (stereo partly drawn) [N2(S)]
Ketorolac (%) ([1]; 5° C., Day 5): 0.2% | Purity (%) ([1]; 5° C., Day 5): 99.08% | Ketorolac (%) ([1]; 5° C., Day 15): 0.14% | Purity (%) ([1]; 5° C., Day 15): 99.18% | Ketorolac (%) ([1]; 5° C., Day 30): 0.25% | Purity (%) ([1]; 5° C., Day 30): 99.01% | Ketorolac (%) ([1]; 5° C., day 0): 0.16% | Purity (%) ([1]; 5° C., day 0): 99.14% | Ketorolac (%) ([1]; 25° C., Day 5): 0.21% | Purity (%) ([1]; 25° C., Day 5): 99.08% | Ketorolac (%) ([1]; 25° C., Day 15): 0.17% | Purity (%) ([1]; 25° C., Day 15): 99.13% | Ketorolac (%) ([1]; 25° C., Day 30): 0.28% | Purity (%) ([1]; 25° C., Day 30): 98.95% | Ketorolac (%) ([1]; 25° C., day 0): 0.16% | Purity (%) ([1]; 25° C., day 0): 99.14% | Ketorolac (%) ([1]; 60° C., Day 5): 0.3% | Purity (%) ([1]; 60° C., Day 5): 98.92% | Ketorolac (%) ([1]; 60° C., Day 15): 0.49% | Purity (%) ([1]; 60° C., Day 15): 98.67% | Ketorolac (%) ([1]; 60° C., Day 30): 0.65% | Purity (%) ([1]; 60° C., Day 30): 98.38% | Ketorolac (%) ([1]; 60° C., day 0): 0.16% | Purity (%) ([1]; 60° C., day 0): 99.14% | Isomer (%) ([1]; 5° C., Day 5): 5.63% | Isomer (%) ([1]; 5° C., Day 15): 5.87% | Isomer (%) ([1]; 5° C., Day 30): 5.99% | Isomer (%) ([1]; 5° C., day 0): 5.65% | Isomer (%) ([1]; 25° C., Day 5): 5.66% | Isomer (%) ([1]; 25° C., Day 15): 5.86% | Isomer (%) ([1]; 25° C., Day 30): 6.01% | Isomer (%) ([1]; 25° C., day 0): 5.65% | Isomer (%) ([1]; 60° C., Day 5): 5.7% | Isomer (%) ([1]; 60° C., Day 15): 5.89% | Isomer (%) ([1]; 60° C., Day 30): 6.13% | Isomer (%) ([1]; 60° C., day 0): 5.65%

Structure (SMILES): CCOC(=O)OC(CC)OC(=O)[C@H]1CCn2c(C(=O)c3ccccc3)ccc21 (stereo partly drawn) [N15(S)]
Ketorolac (%) ([1]; 5° C., Day 5): 0.02% | Purity (%) ([1]; 5° C., Day 5): 99.46% | Ketorolac (%) ([1]; 5° C., Day 15): 0.02% | Purity (%) ([1]; 5° C., Day 15): 99.45% | Ketorolac (%) ([1]; 5° C., Day 30): 0.03% | Purity (%) ([1]; 5° C., Day 30): 99.38% | Ketorolac (%) ([1]; 5° C., day 0): 0.03% | Purity (%) ([1]; 5° C., day 0): 99.48% | Ketorolac (%) ([1]; 25° C., Day 5): 0.03% | Purity (%) ([1]; 25° C., Day 5): 99.42% | Ketorolac (%) ([1]; 25° C., Day 15): 0.03% | Purity (%) ([1]; 25° C., Day 15): 99.41% | Ketorolac (%) ([1]; 25° C., Day 30): 0.05% | Purity (%) ([1]; 25° C., Day 30): 99.33% | Ketorolac (%) ([1]; 25° C., day 0): 0.03% | Purity (%) ([1]; 25° C., day 0): 99.48% | Ketorolac (%) ([1]; 60° C., Day 5): 0.06% | Purity (%) ([1]; 60° C., Day 5): 99.35% | Ketorolac (%) ([1]; 60° C., Day 15): 0.17% | Purity (%) ([1]; 60° C., Day 15): 99.21% | Ketorolac (%) ([1]; 60° C., Day 30): 0.35% | Purity (%) ([1]; 60° C., Day 30): 98.92% | Ketorolac (%) ([1]; 60° C., day 0): 0.03% | Purity (%) ([1]; 60° C., day 0): 99.48% | Isomer (%) ([1]; 5° C., Day 5): 4.58% | Isomer (%) ([1]; 5° C., Day 15): 4.73% | Isomer (%) ([1]; 5° C., Day 30): 4.62% | Isomer (%) ([1]; 5° C., day 0): 4.59% | Isomer (%) ([1]; 25° C., Day 5): 4.58% | Isomer (%) ([1]; 25° C., Day 15): 4.72% | Isomer (%) ([1]; 25° C., Day 30): 4.64% | Isomer (%) ([1]; 25° C., day 0): 4.59% | Isomer (%) ([1]; 60° C., Day 5): 4.59% | Isomer (%) ([1]; 60° C., Day 15): 4.75% | Isomer (%) ([1]; 60° C., Day 30): 4.63% | Isomer (%) ([1]; 60° C., day 0): 4.59%

Structure (SMILES): CC(OC(=O)C1CCn2c(C(=O)c3ccccc3)ccc21)OC(=O)C(C)(C)C (stereo not shown) [N7]
Total main peak purity (%) ([2]; Day 0): 90.83% | Total main peak purity (%) ([2]; Day 5): 88.66% | Total main peak purity (%) ([2]; Day 10): 88.59% | Ketorolac (%) ([2]; Day 0): 0.18% | Ketorolac (%) ([2]; Day 5): 0.25% | Ketorolac (%) ([2]; Day 10): 0.32% | Metabolic by-products in human body [3]: Acetaldehyde and pivalic acid | Toxicity [3]: Pivalic acid is more toxic

Reference: patent US12649746B2, “Ketorolaco derivative, pharmaceutical composition and preparation method therefor and use thereof” (NANJING HERON PHARMACEUTICAL SCIENCE AND TECHNOLOGY CO., …, priority 2020, dated 2026)
